Test results: paper PMC9691367, “The PROTAC selectively degrading Bcl-xL represents a novel Hedgehog pathway inhibitor with capacity of combating resistance to Smoothened inhibitors while sparing bone growth” (Theranostics, 2022)
Several values for one entry are separate records, joined by “and”; a condition that tells them apart may be missing. Equal values may be shown once. Read-outs that look alike come from different tables or passages of the source.

Experiments:
[1] = target: Bcl-2 (Homo sapiens, UniProt P10415); experiment: Competitive fluorescence polarization assay, Bcl-2 / FAM-Bax; format: binding; details: Bcl-2 100 nM, FAM-Bax 5 nM
Procedure: Competitive fluorescence polarization assays were carried out in black-walled plates in assay buffer (20 mM Na2HPO4 ·12H2O, 20 mM NaH2PO4·12H2O, 1 mM EDTA, 50 mM NaCl, 0.05% PF-68). The use of protein/peptide probe pairs was as follows: Bcl-xL (5 nM) and FAM-Bad (5 nM), Bcl-2 (100 nM) and FAM-Bax (5 nM), Mcl-1 (100 nM) and FAM-Bim (5 nM). Assay buffer, proteins, drugs, and peptides were added to the assay plates sequentially. The assay plates were slightly shaken for 3 min and incubated for 30 min at room temperature. The fluorescence polarization was measured on a Synergy 2 reader (BioTek).

[2] = test system: Hh pathway (Gli-luciferase) in light II cells; experiment: Dual luciferase reporter assay, Gli-luciferase provoked by SAG in light II cells; format: cell-based; details: SAG 100 nM, 36 h, read-out: IC50 value inhibiting the Gli-luciferase activity provoked by SAG
Procedure: Cells seeded in 96-well plates were treated with various treatments as indicated. The luciferase activity in the cell lysates was measured using Dual-Luciferase Reporter Assay System (Promega, Madison, WI, USA) according to the manufacturer's instructions in a luminometer (Molecular Devices, Sunnyvale, CA). The firefly luciferase values were normalized to Renilla values.

[3] = target: T1, Bcl-xL (Mus musculus, UniProt Q64373); experiment: Western blot of Bcl-xL degradation in NIH-3T3 cells; format: cell-based
T1 construct: endogenous in cells; host or cells: NIH-3T3
Procedure: Cells were lysed in cell lysis buffer (50 mM Tris pH 8.0, 150 mM NaCl, 10% glycerol, 1 mM EDTA, 50 mM NaF, and 0.1% NP-40) supplemented with protease and phosphatase inhibitors. Total protein extracts of tissues were generated in radioimmunoprecipitation (RIPA) assay lysis buffer containing complete protease and phosphatase inhibitor cocktail. Protein content was quantified using the Pierce BCA Protein Assay Kit (#23225, Thermo Fisher Scientific). The proteins were separated by SDS-PAGE, electrophoretically transferred to polyvinylidene difluoride (PVDF) blotting membranes (#LC2002, Thermo Fisher Scientific), and subjected to routine immunoblot analysis with primary antibodies as follows: anti-Bcl-2 (#15071), anti-Mcl-1 (#94296), anti-VHL (#68547), anti-CRBN (#71810), and anti-Sufu (#2522) were obtained from Cell Signaling Technology (Danvers, Massachusetts, USA); anti-Bcl-xL (#ab32370), anti-Gli1 (#ab134906), and anti-Smoothened (#ab236465) were obtained from Abcam (Cambridge, CB2 0AX, UK); anti-GAPDH (#60004-1-Ig) and anti-β-tubulin (#10094-1-AP) were purchased from Proteintech Group, Inc. (Rosemont, IL 60018, USA). The results were quantified by densitometry using ImageJ software (NIH).

[4] = test system: platelets; experiment: Platelet toxicity assay in C57BL/6J mice; format: in vivo, mouse; details: 8 h and 24 h
Description: Blood was collected at different time points via retro-orbital bleeding in anticoagulation tube. Platelets or different blood cells were enumerated using BM800 blood analyzer (Bowlinman Sunshine).

[5] = Pharmacokinetic study in male ICR mice; format: in vivo, mouse; details: for MRT last: read-out: MRT(0-t); for MRT inf: read-out: MRT(0-∞)
Procedure: Standard pharmacokinetic (PK) studies were conducted using male ICR Mice. A single 2 mg/kg intravenous (i.v.) injection, 10 mg/kg intraperitoneal (i.p.) injection or 10 mg/kg oral (p.o.) administration of SIAIS361034 was evaluated. Plasma concentrations of SIAIS361034 at each of the 7 time points (0.25 h, 0.5 h, 1 h, 2 h, 4 h, 8 h, and 24 h post dosing) are the average values from 3 animals.

[6] = male ICR mice, 2 mg/kg IV, individual animals (Mouse 1-3), 2 mg/kg
[7] = male ICR mice, 10 mg/kg IP, individual animals (Mouse 1-3), 10 mg/kg
[8] = male ICR mice, 10 mg/kg PO, individual animals (Mouse 1, 3; Mouse 2 NA), 10 mg/kg
[9] = male ICR mice, 10 mg/kg PO, individual animals (Mouse 1-3), 10 mg/kg
[10] = male, ICR, mouse, plasma, ip, 10 mg/kg, male ICR mice, 10 mg/kg IP, individual animals (Mouse 1-3)
[11] = male, ICR, mouse, plasma, ip, 10 mg/kg, male ICR mice, 10 mg/kg IP, mean of 3 animals
[12] = male, ICR, mouse, plasma, iv, 2 mg/kg, male ICR mice, 2 mg/kg IV, individual animals (Mouse 1-3)
[13] = male, ICR, mouse, plasma, iv, 2 mg/kg, male ICR mice, 2 mg/kg IV, mean of 3 animals
[14] = male, ICR, mouse, plasma, po, 10 mg/kg, male ICR mice, 10 mg/kg PO, mean

T1 sequence (Q64373 whole entry): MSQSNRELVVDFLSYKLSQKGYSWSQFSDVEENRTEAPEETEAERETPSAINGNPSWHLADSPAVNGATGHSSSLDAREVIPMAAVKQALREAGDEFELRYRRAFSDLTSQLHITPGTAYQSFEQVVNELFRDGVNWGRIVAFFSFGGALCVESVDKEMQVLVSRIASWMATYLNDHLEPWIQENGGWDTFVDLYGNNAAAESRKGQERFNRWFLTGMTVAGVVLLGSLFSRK
Chain of Bcl-2 (P10415 whole entry, species assumed): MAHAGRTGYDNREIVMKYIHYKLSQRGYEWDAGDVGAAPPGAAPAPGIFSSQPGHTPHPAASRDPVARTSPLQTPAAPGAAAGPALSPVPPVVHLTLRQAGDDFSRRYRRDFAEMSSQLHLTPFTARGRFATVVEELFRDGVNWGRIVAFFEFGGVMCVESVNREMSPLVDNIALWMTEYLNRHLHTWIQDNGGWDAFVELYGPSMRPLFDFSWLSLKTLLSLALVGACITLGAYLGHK

CC1(C)CCC(c2ccc(Cl)cc2)=C(CN2CCN(c3ccc(C(=O)NS(=O)(=O)c4ccc(NCCCN5CCN(CCCC#Cc6cccc7c6CN(C6CCC(=O)NC6=O)C7=O)CC5)c(S(=O)(=O)C(F)(F)F)c4)cc3)CC2)C1 (centres unmarked) [SIAIS361034]
Ki [1]: 15.1 nM | IC50 [2]: 120 nM | duration of Bcl-xL degradation ([3]; 1 µM for 24 h followed by drug withdrawal): around 48 h | Bcl-xL degradation ([3]; 1 µM, western blot): significantly degraded Bcl-xL | Dmax ([3]; NIH3T3, 24 h, western blot, read-out: maximum degradation (Dmax) of Bcl-xL): 88.1% | effect on Bcl-xL mRNA levels ([3]; data not shown): almost no effect | number of platelets ([4]; SIAIS361034 single i.p. 50 and 100 mg/kg, ABT-263 single p.o. 100 mg/kg): no appreciable alterations | other blood cells (neutrophils, red blood cells) ([4]; single i.p. 50 and 100 mg/kg): no influence | AUC(0-t) [5, 6]: 6203 ng·h/mL and 4263 ng·h/mL | AUC(0-∞) [5, 6]: 6222 ng·h/mL and 4305 ng·h/mL | C0 [5, 6]: 34215 ng/mL and 79513 ng/mL and 43287 ng/mL | Cl [5, 6]: 5.35 mL/min/kg and 7.75 mL/min/kg | Cmax [5, 6]: 17900 ng/mL and 13200 ng/mL | MRT(0-t) [5, 6]: 0.30 h and 0.31 h | MRT(0-∞) [5, 6]: 0.40 h and 0.42 h | T1/2 [5, 6]: 1.79 h and 6.38 h and 2.29 h | Vss [5, 6]: 0.13 L/kg and 0.193 L/kg | Vz [5, 6]: 2.957 L/kg and 1.535 L/kg | AUC(0-t) [5, 7]: 20871 ng·h/mL and 15558 ng·h/mL | AUC(0-∞) [5, 7]: 22061 ng·h/mL and 16141 ng·h/mL | Cmax [5, 7]: 9700 ng/mL and 4920 ng/mL | F [5, 7]: 71.4% and 96.4% and 70.5% | MRT(0-t) [5, 7]: 5.16 h and 4.24 h | MRT(0-∞) [5, 7]: 6.68 h and 5.22 h | T1/2 [5, 7]: 5.23 h and 5.94 h | Tmax ([5]; male ICR mice, 10 mg/kg IP, individual animals (Mouse 1-3; 0.50 twice), 10 mg/kg): 0.50 h | AUC(0-∞) [5, 8]: 305 ng·h/mL and 111 ng·h/mL | MRT(0-∞) [5, 8]: 10.30 h and 2.82 h | T1/2 [5, 8]: 8.98 h and 2.39 h | F ([5]; male ICR mice, 10 mg/kg PO, individual animals (Mouse 1, 3; Mouse 2 and mean NA), 10 mg/kg): 1.33% and 0.484% | AUC(0-t) [5, 9]: 265 ng·h/mL and 213 ng·h/mL and 101 ng·h/mL | Cmax [5, 9]: 54.9 ng/mL and 49.1 ng/mL | MRT(0-t) [5, 9]: 6.29 h and 2.88 h and 2.01 h | Tmax ([5]; male ICR mice, 10 mg/kg PO, individual animals (Mouse 1-3; 1.00 twice), 10 mg/kg): 2.00 h | AUC(0-inf) [5, 10]: 16300 ng·h/mL | half-life [5, 10]: 6.44 h | AUC(0-t) ([5]; male, ICR, mouse, plasma, ip, 10 mg/kg, male ICR mice, 10 mg/kg IP, individual animals (Mouse 1-3), read-out: AUC(0-t)): 15500 ng·h/mL | Cmax ([5]; male, ICR, mouse, plasma, ip, 10 mg/kg, male ICR mice, 10 mg/kg IP, individual animals (Mouse 1-3), read-out: Cmax): 7630 ng/mL | MRT last [5, 10]: 3.84 h | MRT inf [5, 10]: 5.25 h | Tmax ([5]; male, ICR, mouse, plasma, ip, 10 mg/kg, male ICR mice, 10 mg/kg IP, individual animals (Mouse 1-3; 0.50 twice), read-out: Tmax): 1 h | AUC(0-inf) [5, 11]: 18200 ng·h/mL | bioavailability [5, 11]: 79.4% | half-life [5, 11]: 5.87 h | AUC(0-t) ([5]; male, ICR, mouse, plasma, ip, 10 mg/kg, male ICR mice, 10 mg/kg IP, mean of 3 animals, read-out: AUC(0-t)): 17300 ng·h/mL | Cmax ([5]; male, ICR, mouse, plasma, ip, 10 mg/kg, male ICR mice, 10 mg/kg IP, mean of 3 animals, read-out: Cmax): 7420 ng/mL | MRT last [5, 11]: 4.41 h | MRT inf [5, 11]: 5.72 h | Tmax ([5]; male, ICR, mouse, plasma, ip, 10 mg/kg, male ICR mice, 10 mg/kg IP, mean of 3 animals, read-out: Tmax): 0.67 h | AUC(0-inf) [5, 12]: 3200 ng·h/mL | clearance [5, 12]: 10.4 mL/min/kg | AUC(0-t) ([5]; male, ICR, mouse, plasma, iv, 2 mg/kg, male ICR mice, 2 mg/kg IV, individual animals (Mouse 1-3), read-out: AUC(0-t)): 3190 ng·h/mL | Cmax ([5]; male, ICR, mouse, plasma, iv, 2 mg/kg, male ICR mice, 2 mg/kg IV, individual animals (Mouse 1-3), read-out: Cmax): 10300 ng/mL | MRT last [5, 12]: 0.22 h | MRT inf [5, 12]: 0.26 h | Vd ([5]; male, ICR, mouse, plasma, iv, 2 mg/kg, male ICR mice, 2 mg/kg IV, individual animals (Mouse 1-3), read-out: Vss): 0.163 L/kg | Vd ([5]; male, ICR, mouse, plasma, iv, 2 mg/kg, male ICR mice, 2 mg/kg IV, individual animals (Mouse 1-3), read-out: Vz): 1.61 L/kg | Tmax ([5]; male, ICR, mouse, plasma, iv, 2 mg/kg, male ICR mice, 2 mg/kg IV, individual animals (Mouse 1-3, same value), read-out: Tmax): 0.083 h | AUC(0-inf) [5, 13]: 4580 ng·h/mL | clearance [5, 13]: 7.83 mL/min/kg | half-life [5, 13]: 3.49 h | AUC(0-t) ([5]; male, ICR, mouse, plasma, iv, 2 mg/kg, male ICR mice, 2 mg/kg IV, mean of 3 animals, read-out: AUC(0-t)): 4550 ng·h/mL | C0 ([5]; male, ICR, mouse, plasma, iv, 2 mg/kg, male ICR mice, 2 mg/kg IV, mean of 3 animals, read-out: C0): 52300 ng/mL | Cmax ([5]; male, ICR, mouse, plasma, iv, 2 mg/kg, male ICR mice, 2 mg/kg IV, mean of 3 animals, read-out: Cmax): 13800 ng/mL | MRT last [5, 13]: 0.28 h | MRT inf [5, 13]: 0.36 h | Tmax ([5]; male, ICR, mouse, plasma, iv, 2 mg/kg, male ICR mice, 2 mg/kg IV, mean of 3 animals, read-out: Tmax): 0.083 h | Vd ([5]; male, ICR, mouse, plasma, iv, 2 mg/kg, male ICR mice, 2 mg/kg IV, mean of 3 animals, read-out: Vss): 0.162 L/kg | Vd ([5]; male, ICR, mouse, plasma, iv, 2 mg/kg, male ICR mice, 2 mg/kg IV, mean of 3 animals, read-out: Vz): 2.03 L/kg | Cmax ([5]; male, ICR, mouse, plasma, po, 10 mg/kg, male ICR mice, 10 mg/kg PO, individual animals (Mouse 1-3), read-out: Cmax): 50.9 ng/mL | Tmax ([5]; male, ICR, mouse, plasma, po, 10 mg/kg, male ICR mice, 10 mg/kg PO, individual animals (Mouse 1-3; 1.00 twice), read-out: Tmax): 1 h | AUC(0-inf) [5, 14]: 208 ng·h/mL | half-life [5, 14]: 5.68 h | AUC(0-t) ([5]; male, ICR, mouse, plasma, po, 10 mg/kg, male ICR mice, 10 mg/kg PO, mean of 3 animals, read-out: AUC(0-t)): 193 ng·h/mL | Cmax ([5]; male, ICR, mouse, plasma, po, 10 mg/kg, male ICR mice, 10 mg/kg PO, mean of 3 animals, read-out: Cmax): 51.6 ng/mL | MRT last ([5]; male, ICR, mouse, plasma, po, 10 mg/kg, male ICR mice, 10 mg/kg PO, mean of 3 animals): 3.73 h | Tmax ([5]; male, ICR, mouse, plasma, po, 10 mg/kg, male ICR mice, 10 mg/kg PO, mean of 3 animals, read-out: Tmax): 1.33 h | MRT inf [5, 14]: 6.56 h | pharmacokinetic property, oral ([5]; mice, 10 mg/kg p.o.): poor pharmacokinetic property | plasma exposure ([5]; mice, single 10 mg/kg i.p. or 2 mg/kg i.v., over 24 h): good plasma exposure
